# Assay results: article PMC9926234, “Iterative computational design and crystallographic screening identifies potent inhibitors targeting the Nsp3 macrodomain of SARS-CoV-2” (Proceedings of the National Academy of Sciences of the …, 2023)
# Where “and” joins values, the source holds several entries; their conditions need not be identical. Equal values may be shown once. Read-outs that look alike come from different tables or passages of the source.
# Experiments:
# [1] = target: T1, SARS-CoV-2 NSP3 Mac1 (Severe acute respiratory syndrome coronavirus 2, UniProt P0DTD1); parameters: contains a conserved macrodomain enzyme (Mac1); Differential scanning fluorimetry of Mac1, maximum thermal upshift; conditions: maximum shift over tested concentrations; binder
# [2] = system: SARS-CoV-2 NSP3 Mac1; test: Overall hit call (binding in crystallographic soaking or the HTRF-based binding assay)
# Description: Supplement pnas.2212931120.sd01.xlsx, sheet "Compound Summary" | column: HIT*
# [3] = target: T1, SARS-CoV-2 NSP3 Mac1; type: binding; conditions: for Refined occupancy: ligand occupancy after refinement (phenix.refine)
# [4] = target: T1, SARS-CoV-2 NSP3 Mac1; test: biochemical; type: binding; conditions: for IC50: HTRF ADPr-conjugated peptide displacement, read-out: IC50; for Ki: read-out: Ki***
# [5] = PanDDA event map, 1 minus background density correction, crystal soaking of Mac1
# [6] = ligand modeled from this dataset, compound concentration 100 mM
# [7] = PanDDA event map 1-BDC, crystal soak, Compound_concentration 100 mM, PanDDA run dmso_34 or nohits_35 per dataset
# [8] = crystal soak, Compound_concentration 100 mM, Echo dispense 40 nl, PanDDA run dmso_34 or nohits_35 per dataset
# [9] = ligand modeled in this dataset, crystal soak, Compound_concentration 100 mM
# [10] = PanDDA event map background density correction, crystal soak, compound concentration 100 mM
# [11] = ligand modeled in the crystal structure, crystal soak, compound concentration 100 mM
# [12] = PanDDA event map, crystal soak, Compound_concentration 100 mM, Echo_dispense_volume 40 nl
# [13] = crystal soak, Compound_concentration 100 mM, Echo_dispense_volume 40 nl, PanDDA run (background map) dmso_34, nohits_35 or nohits_62
Compound,HIT* [2],Refined occupancy ([3]; crystal soaking of Mac1),"1-BDC (PanDDA) [3, 5]",IC50 [4] [µM],Ki [4] [µM],"1-BDC [3, 10]","Modeled? [3, 11]",also measured
"Nc1ncnc(N2CCCC(CCC(=O)O)C2)c1Cl (stereo not shown) [R6134, REAL250003296134]",,,,,,,,DSF max dTma [1]: 0.34 °C
O=S1(=O)CC(CNc2ncnc3[nH]ccc23)C1 [SRH-0005],Y,18,,,,,,"1-BDC [3, 5]: 0.09; Modeled? [3, 6]: TRUE"
O=S1(=O)CCCC(Nc2ncnc3[nH]ccc23)C1 (stereo not shown) [SRH-0010],Y,26,0.13,,,,,"1-BDC [3, 7]: 0.13; PanDDA hit? [3, 8]: TRUE; Modeled? [3, 9]: TRUE"
O[C@@H]1CC[C@H](Nc2ncnc3[nH]ccc23)C1 [SRH-0018],Y,14,,,,,,"1-BDC [3, 5]: 0.07; Modeled? [3, 6]: TRUE"
c1ccc(CNc2ncnc3[nH]ccc23)nc1 [SRH-0028],Y,18,0.09,,,,,"1-BDC [3, 7]: 0.09; PanDDA hit? [3, 8]: TRUE; Modeled? [3, 9]: TRUE"
CCC(=O)Nc1nc(C)c(S(=O)(=O)Nc2cccc(C#N)c2)s1 [Z0611],Y,,,143,124,,,
O=C(O)CC(NC(=O)c1cc(F)cc2[nH]cnc12)c1ccc(Br)cc1 (stereo not shown) [Z3722],Y,,,26.2,22.8,,,
O=C(O)c1csc(CCNC(=O)c2cc3[nH]cnc3cc2F)n1 [Z5740],Y,20,0.1,,,0.1,TRUE,
CNc1cnc(C(=O)N2CC(c3noc(O)n3)C2)cn1.O=C(O)C(F)(F)F [Z6567],Y,62,0.31,,,0.31,TRUE,
O=C(NC1C=CC(C(=O)O)C1)c1ncnc2sccc12 (stereo not shown) [Z6645],Y,,,69.4,60.4,,,
CCNc1ncc(C(=O)NCCn2cnc(C(=O)O)c2)s1 [Z6684],Y,20,0.1,,,,,"1-BDC [3, 12]: 0.1; PanDDA hit? [3, 13]: TRUE; Modeled? ([3]; ligand modeled, crystal soak, Compound_concentration 100 mM, Echo_dispense_volume 40 nl): TRUE"
Cn1ncc2c(=O)[nH]c(CCC(=O)N3CC=C(C(=O)O)C3)nc21 [Z6689],Y,34,0.17,,,0.17,TRUE,
Cn1ncc2ncnc(NS(=O)(=O)Cc3ccc(CC#N)cc3)c21 [Z6742],Y,,,42.4,36.9,,,
Cn1ccn2c(CCNC(=O)[C@H]3C[C@H]3C(=O)O)nnc2c1=O [Z6744],Y,60,0.3,,,0.3,TRUE,
O=C(NC1c2cccc(O)c2CC1C(=O)O)c1ccc2[nH]ccc2c1 (stereo not shown) [Z8539_2004],Y,44,0.22,7.2,6.3,0.41 and 0.22,TRUE,
O=C(NCc1c(C(=O)O)[nH]c2ccccc12)c1ccc2[nH]cnc2c1 [Z8539_2005],Y,38,0.19,24.5,21.3,0.21 and 0.19,TRUE,"1-BDC [3, 12]: 0.24; PanDDA hit? [3, 13]: TRUE"
O=C(NCc1c(C(=O)O)[nH]c2ccccc12)c1ccc2[nH]c(O)nc2c1 [Z8539_2006],Y,10,0.05,15.8,13.7,0.05,TRUE,
